Experimental data published in patent US5527781A, “4-O-(aminoglycosyl)- or 4,6-di-O-(aminoglycosyl)-2,5-dideoxy-5,5-difluorostreptamine derivatives” (Zaidan Hojin Biseibutsu Kagaku Kenkyu Kai, priority 1990, dated 1996).
Values after ≈ are worked out from the molar mass of the structure shown. Like-named read-outs stand apart in the source and are kept apart here.

Assays:
[1] = tested on: Staphylococcus aureus 209P; experiment: MIC, standard serial dilution method; assay type: cell-based; details: Mueller-Hinton agar, 37° C
[2] = tested on: Staphylococcus aureus Ap01; experiment: MIC, standard serial dilution method; assay type: cell-based; details: resistance mechanism ANT(4'), Mueller-Hinton agar, 37° C
[3] = tested on: Bacillus subtilis PCI219; experiment: MIC, standard serial dilution method; assay type: cell-based; details: Mueller-Hinton agar, 37° C
[4] = tested on: Corynebacterium bovis 1810; experiment: MIC, standard serial dilution method; assay type: cell-based; details: Mueller-Hinton agar, 37° C
[5] = tested on: Escherichia coli K-12; experiment: MIC, standard serial dilution method; assay type: cell-based; details: K12
[6] = tested on: Escherichia coli K-12 R5; experiment: microbe, parasite or virus in culture; assay type: cell-based; details: K12R5
[7] = tested on: Escherichia coli K-12 ML 1629; experiment: microbe, parasite or virus in culture; assay type: cell-based; details: K12ML1629
[8] = tested on: Escherichia coli K-12 LA 290 R55; experiment: microbe, parasite or virus in culture; assay type: cell-based; details: K12LA290R55; Escherichia coli K-12 LA 290 R55; resistance mechanism ANT(2"); Mueller-Hinton agar, 37° C
[9] = tested on: Mycobacterium 607; experiment: MIC, standard serial dilution method; assay type: cell-based; details: Mueller-Hinton agar, 37° C
[10] = tested on: Klebsiella pneumoniae 22#3038; experiment: MIC, standard serial dilution method; assay type: cell-based; details: resistance mechanism APH(3')-II, ANT(2"), Mueller-Hinton agar, 37° C
[11] = tested on: Proteus rettgeri GN 311; experiment: MIC, standard serial dilution method; assay type: cell-based; details: Providencia rettgeri, GN311; Proteus rettgeri GN 311; Mueller-Hinton agar, 37° C; read-out: MIC
[12] = tested on: Serratia marcescens; experiment: MIC, standard serial dilution method; assay type: cell-based; details: Mueller-Hinton agar, 37° C
[13] = tested on: Providencia sp. Pv 16; experiment: MIC, standard serial dilution method; assay type: cell-based; details: SP.PV16, resistance mechanism AAC(2'), Mueller-Hinton agar, 37° C
[14] = tested on: Pseudomonas aeruginosa GN 315; experiment: MIC, standard serial dilution method; assay type: cell-based; details: GN315; Pseudomonas aeruginosa GN 315; resistance mechanism AAC(6'); Mueller-Hinton agar, 37° C; read-out: MIC
[15] = in vivo; details: mouse, iv, pH 7
Source text: Further, in order to estimate acute toxicity of the compound of the general formula (I) according to this invention, some examples of the compounds of this invention were independently dissolved in water to prepare aqueous solutions (as adjusted to pH 7 by addition of hydrochloric acid). […] The tested compounds of this invention are expressed by the same abbreviations as in Table 1. […] The comparative compounds as tested are also expressed by the same abbreviations as in Table 1.

[16] = tested on: Escherichia coli JR225; experiment: microbe, parasite or virus in culture; assay type: cell-based; details: resistance mechanism AAC(3), Mueller-Hinton agar, 37° C
[17] = tested on: Pseudomonas aeruginosa A3; experiment: MIC, standard serial dilution method; assay type: cell-based; details: Mueller-Hinton agar, 37° C
[18] = tested on: Escherichia coli JR66/W677; experiment: microbe, parasite or virus in culture; assay type: cell-based; details: resistance mechanism APH(3')-II, ANT(2"), Mueller-Hinton agar, 37° C
[19] = Escherichia coli K-12, Mueller-Hinton agar, 37° C, read-out: MIC
[20] = Escherichia coli K-12 R5, resistance mechanism AAC(6'), Mueller-Hinton agar, 37° C
[21] = Escherichia coli K-12 ML 1629, resistance mechanism APH(3')-I, Mueller-Hinton agar, 37° C, read-out: MIC

Compound | MIC [1] [µg/mL] | MIC [2] [µg/mL] | MIC [3] [µg/mL] | MIC [4] [µg/mL] | MIC [5, 19] [µg/mL] | MIC [6, 20] [µg/mL] | MIC [8] [µg/mL] | MIC [9] [µg/mL] | MIC [10] [µg/mL] | MIC [11] [µg/mL] | MIC [12] [µg/mL] | MIC [13] [µg/mL] | MIC [14] [µg/mL] | LD50 [15] [mg/kg] | MIC [7, 21] [µg/mL] | MIC [16] [µg/mL] | MIC [17] [µg/mL] | other results
NC[C@H]1O[C@H](O[C@H]2[C@H](O)[C@@H](O[C@H]3O[C@H](CO)[C@@H](O)[C@H](N)[C@H]3O)[C@H](N)C[C@@H]2N)[C@H](N)C[C@@H]1O [TOB, 3'-deoxykanamycin B, reference compound] | < 0.2 | 12.5 (≈ 26.7 µM) | < 0.2 | 1.56 (≈ 3.34 µM) | 0.39 (≈ 0.834 µM) | 25 (≈ 53.5 µM) | 12.5 (≈ 26.7 µM) | 0.39 (≈ 0.834 µM) | 12.5 (≈ 26.7 µM) | 0.39 (≈ 0.834 µM) | 3.12 (≈ 6.67 µM) | 6.25 (≈ 13.4 µM) | 25 (≈ 53.5 µM) | ~80 |  |  |  | MIC ([7]; Escherichia coli): 0.78 µg/mL (≈ 1.67 µM)
NC[C@H]1O[C@H](O[C@@H]2[C@@H](N)C[C@@H](N)[C@H](O[C@H]3O[C@H](CO)[C@@H](O)[C@H](N)[C@H]3O)C2(F)F)[C@H](N)[C@@H](O)[C@@H]1O [Compound 5FF-KMB, 5-deoxy-5,5-difluorokanamycin B] | 0.78 (≈ 1.55 µM) | 50 (≈ 99.3 µM) | 0.39 (≈ 0.775 µM) | 1.56 (≈ 3.1 µM) | 0.39 (≈ 0.775 µM) | 100 (≈ 199 µM) | 3.12 (≈ 6.2 µM) | 1.56 (≈ 3.1 µM) |  | 0.39 (≈ 0.775 µM) | 6.25 (≈ 12.4 µM) | 12.5 (≈ 24.8 µM) | > 100 |  | > 100 | 3.12 (≈ 6.2 µM) | 3.12 (≈ 6.2 µM) | 
NCC[C@H](O)C(=O)N[C@@H]1C[C@H](N)[C@@H](O[C@H]2O[C@H](CN)CC[C@H]2N)[C@H](F)[C@H]1O[C@H]1O[C@H](CO)[C@@H](O)[C@H](N)[C@H]1O [Compound 5F-DKB-AHB, 1-N-[4-amino-2-(S)-hydroxybutyryl]-5,3',4'-trideoxy-5-fluorokanamycin B, reference compound] |  | 1.56 (≈ 2.81 µM) | < 0.2 |  | < 0.2 | 12.5 (≈ 22.5 µM) | 0.39 (≈ 0.703 µM) |  | 0.78 (≈ 1.41 µM) |  | 3.12 (≈ 5.63 µM) | 0.39 (≈ 0.703 µM) |  |  | 0.39 (≈ 0.703 µM) | < 0.2 |  | 
NC[C@H]1O[C@H](O[C@H]2[C@H](O)[C@@H](O[C@H]3O[C@H](CO)[C@@H](O)[C@H](N)[C@H]3O)[C@H](N)C[C@@H]2N)[C@H](O)[C@@H](O)[C@@H]1O [KMA, kanamycin A, reference compound] | 1.56 (≈ 3.22 µM) | 25 (≈ 51.6 µM) | 0.78 (≈ 1.61 µM) | 12.5 (≈ 25.8 µM) |  | > 100 | 50 (≈ 103 µM) | 6.25 (≈ 12.9 µM) | > 100 | 0.78 (≈ 1.61 µM) | 12.5 (≈ 25.8 µM) | 3.12 (≈ 6.44 µM) | > 100 |  | > 100 | 3.12 (≈ 6.44 µM) | 6.25 (≈ 12.9 µM) | MIC ([5]; Escherichia coli): 0.78 µg/mL (≈ 1.61 µM); MIC [18]: > 100 µg/mL
CN[C@@H]1[C@@H](O)[C@@H](O[C@H]2[C@H](NC(=O)[C@@H](O)CCN)C[C@H](N)[C@@H](O[C@H]3O[C@H]([C@@H](C)NC)CC[C@H]3N)C2(F)F)OC[C@]1(C)O [5FF-Genta-C1-AHB, 1-N-[(S)-4-amino-2-hydroxybutyryl]-5-deoxy-5,5-difluorogentamicin C1] | 1.56 (≈ 2.61 µM) | 25 (≈ 41.8 µM) | 1.56 (≈ 2.61 µM) | 0.78 (≈ 1.3 µM) | < 0.2 |  | 0.39 (≈ 0.651 µM) | 3.12 (≈ 5.21 µM) | 1.56 (≈ 2.61 µM) | 1.56 (≈ 2.61 µM) | 3.12 (≈ 5.21 µM) | 6.25 (≈ 10.4 µM) | 100 (≈ 167 µM) |  | 1.56 (≈ 2.61 µM) | < 0.2 | 6.25 (≈ 10.4 µM) | MIC ([6]; Escherichia coli): 0.78 µg/mL (≈ 1.3 µM); MIC [18]: 3.12 µg/mL (≈ 5.21 µM)
NCC[C@H](O)C(=O)N[C@@H]1C[C@H](N)[C@@H](O[C@H]2O[C@H](CN)CC[C@H]2N)[C@H](O)[C@H]1O[C@H]1O[C@H](CO)[C@@H](O)[C@H](N)[C@H]1O [HBK, 1-N-[4-amino-(S)-2-hydroxybutyryl]-3',4'-dideoxykanamycin B, reference compound] |  |  |  |  |  |  |  |  |  |  |  |  |  | 70 |  |  |  | 
NC[C@H]1O[C@H](O[C@H]2[C@H](F)[C@@H](O[C@H]3O[C@H](CO)[C@@H](O)[C@H](N)[C@H]3O)[C@H](N)C[C@@H]2N)[C@H](N)C[C@@H]1O [Compound 5F-TOB, 5,3'-dideoxy-5-fluorokanamycin B, reference compound] |  |  | < 0.2 |  |  |  |  |  | 3.12 (≈ 6.65 µM) |  |  | 3.12 (≈ 6.65 µM) |  | ~180 |  |  |  | 
